Results published in patent publication US8143254B2, “Methods for modulating ion channels” (Cornell Research Foundation, Inc., priority 2005, dated 2012).

Biological target: T1, Kv2.1 channels expressed in CHO cells (Rattus norvegicus, UniProt P15387)
T1 construct: expressed in transfected cells; host or cells: CHO cells (transient, co-transfected with GFP plasmid)
T1 sequence (P15387 1-857): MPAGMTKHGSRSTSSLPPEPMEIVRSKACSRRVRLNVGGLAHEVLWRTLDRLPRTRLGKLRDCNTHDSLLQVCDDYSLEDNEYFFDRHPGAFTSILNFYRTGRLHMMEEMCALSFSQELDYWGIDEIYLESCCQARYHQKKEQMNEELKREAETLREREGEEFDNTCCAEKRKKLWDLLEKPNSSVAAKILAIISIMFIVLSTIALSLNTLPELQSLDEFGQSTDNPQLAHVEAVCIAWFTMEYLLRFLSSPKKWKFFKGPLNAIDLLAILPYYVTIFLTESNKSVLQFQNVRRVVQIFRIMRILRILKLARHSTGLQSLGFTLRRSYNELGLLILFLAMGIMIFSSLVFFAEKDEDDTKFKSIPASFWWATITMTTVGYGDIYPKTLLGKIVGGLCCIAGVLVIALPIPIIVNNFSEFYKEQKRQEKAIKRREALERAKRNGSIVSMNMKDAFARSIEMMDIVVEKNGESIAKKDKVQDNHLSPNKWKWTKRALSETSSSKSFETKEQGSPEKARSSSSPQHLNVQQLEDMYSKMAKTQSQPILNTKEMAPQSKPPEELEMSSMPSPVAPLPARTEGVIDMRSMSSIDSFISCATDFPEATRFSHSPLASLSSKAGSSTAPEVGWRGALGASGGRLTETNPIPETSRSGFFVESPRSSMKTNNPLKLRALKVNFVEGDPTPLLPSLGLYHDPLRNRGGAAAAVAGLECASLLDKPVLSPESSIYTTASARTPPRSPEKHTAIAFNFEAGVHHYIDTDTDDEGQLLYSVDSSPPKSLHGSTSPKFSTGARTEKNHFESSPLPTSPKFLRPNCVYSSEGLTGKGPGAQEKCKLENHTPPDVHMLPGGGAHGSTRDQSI
Assay: Whole-cell voltage clamp of CHO cells transfected with Kv2.1
Type: cell-based
Excerpt: Kv2.1 mutants were constructed using the QuickChange Multi Site-Directed Mutagenesis Kit (Stratagene, La Jolla, Calif.). Mutant Kv2.1 genes (in the pGA1 oocyte expression vector for oocyte expression) were sequenced in their entirety to confirm appropriate mutations and check for inadvertent mutations, and then subcloned into a wild-type pGA1 backbone. For oocyte expression, Kv3.4 was in pBF1, Kv4.2 was in pRAT. cRNA transcripts were produced from SacII-linearized (Kv2.1), Mlullinearized (Kv3.4) and Not1-linearized (Kv4.2) DNA templates using the T3 (Kv2.1), SP6 (Kv3.4) and T7 (Kv4.2) mMessage mMachine kits (Ambion, Austin, Tex.). cRNA was quantified by spectrophotometry and its size integrity verified by gel electophoresis. Defolliculated stage V and VI Xenopus laevis oocytes (purchased from Nasco, Grand Island, N.Y.) were injected with 5 ng of cRNA encoding Kv2.1, Kv3.4 or Kv4.2. Chinese Hamster Ovary (CHO) cells were transfected with 0.25 μg Kv2.1 cDNA, 2 μg blank plasmid and 2 μg Green fluorescent Protein in pBOB using Supetfect transfection reagent (Qiagen) 24 hours before whole-cell voltage clamp studies.
For whole-cell voltage clamp studies of CHO cells, bath solution was (in mM): 135 NaCl, 5 KCl, 1.2 MgCl2, 5 HEPES, 2.5 CaCl2, and 10 D-glucose, pH 7.4. Pipettes were 3-5 MQ resistance when filled with intracellular solution containing (in mM): 10 NaCl, 117 KCl, 2 MgCl2, 11 HEPES, 11 EGTA, and 1 CaCl2, pH 7.2. For experiments with extracellular drug application, cells were held at −80 mV and subjected to 2 sec test pulses […] every 30 s. Whole-cell patch clamp recordings were performed at 22-25° C. using an IX50 inverted microscope equipped with epifluorescence optics for GFP detection (Olympus), a Multiclamp 700 A Amplifier, a Digidata 1300 Analogue/Digital converter and pClamp9 software (Axon Instruments). Leak and liquid junction potentials (<4 mV) were not compensated for when generating current-voltage relationships. For intracellular drug application, the tip of the recording electrode was first filled with drug-free intracellular solution, the electrode was then back-filled with intracellular solution containing TEA (20 mM), TA279 (5 mM) or JC638.2α (0.5 mM). Cells were held at −80 mV and subjected to 2 sec test pulses from −60 mV to +60 mV in 10 mV increments, followed by a 1 sec tail pulse to −30 mV. After an initial recording which we denoted time 0, a second recording was performed after 5 minutes.
Data analysis: Current-voltage relationships were obtained by measuring peak current during depolarizing pulses. Inhibition constants for DABCO blockers were calculated after generating a dose response curve by fitting with a logistic dose-response function y=A2+[A1−A2/1+(x/x0)^p], where A1 is the maximum response plateau, A2 is the minimum response plateau, x is drug concentrator, x0 is the IC50, and p the Hill slope. Data analysis was performed using CLAMPFIT 9 (Axon Instruments, Foster City, Calif.) and tabulated in Excel 5.0. Graphs were generated using Origin 6.1. Data are expressed as mean±SEM, with n specifying the number of independent experiments. Statistical significance was assessed by one-way ANOVA with p<0.05 being indicative of significance.

Structure (SMILES) | block on intracellular application (0.5 mM via recording electrode, 0 mV) | sensitivity of Kv2.1 in CHO cells relative to Kv2.1 in oocytes | block on intracellular application (5 μM via recording electrode, 0 mV, at 0 or 5 minutes) | inhibition at 0.5 µM (CHO, extracellular application, 500 nM, 0 mV, n=3, read-out: mean current inhibition)
c1cc(C[N+]23CCN(CC2)CC3)ccc1C[N+]12CCN(CC1)CC2 [JC638.2α, α,α′-[bis(4-aza-1-azoniabicyclo[2.2.2]octanyl)]p-xylene] | no significant block |  |  | 
CCCCCCCCCCCCCCCC[N+]12CCN(CC1)CC2 [TA279, 1-aza-4-azonia-4-hexadecylbicyclo[2.2.2]octane] |  | ~4 fold | no significant block | 59 ± 4%
